In US9688638B2, “Opioid agonists and uses thereof” (priority 2013, dated 2017):
Read-outs that look alike come from different tables or passages of the source.

What was measured:
[1] = biological target: KOR (Homo sapiens (Human), UniProt P41145); assay: cAMP accumulation assay, forskolin-stimulated CHO-K1 cells stably expressing KOR; type: cell-based
Description: (§1) Inhibition of cAMP accumulation by select compounds was measured in forskolin-stimulated CHO-K1 cells stably expressing KOR. CHO-K1 cells stably expressing KOR were harvested using Invitrogen Cell Dissociation Buffer, and then centrifuged at 1200 rpm for five minutes. The supernatant was aspirated and cells were resuspended in assay buffer to a density of 4×10^5 cells/mL. 25 μL of cells were added into a white half-area 96 well plate. Fourteen point serial dilutions of test compounds were carried out in assay buffer (PBS with 0.5 mM IBMX). Ketazocine was used as a positive control for each assay. 12.5 μL of compound was added to the cells in duplicate for each test concentration. The cells were then stimulated with 12.5 μL forskolin at a final concentration 20 μM. Cells were incubated for 45 minutes in a 37° C., 5% CO2 water jacketed incubator. CisBio HTRF cAMP assay reagent was used for cAMP quantitation. Two hours after substrate addition, signal at 665/615 nm was measured using the Perkin Elmer Victor X4 HTRF reader. Data analysis was done using GraphPad Prism, sigmoidal dose-response (variable slope) curve fitting.

[2] = biological target: recombinant human kappa (KOR) opioid receptor (Homo sapiens (Human), UniProt P41145); assay: biochemical; type: binding
[3] = test system: Swiss Albino or CD-1 male mice; assay: Acetic acid writhing (AAW) analgesic assay; type: in vivo
Description: Approaches for evaluating analgesic activity of a compound of the present invention in vivo include a “writhing test.” Briefly, the compound to be tested is administered [by, for example, injection (e.g., subcutaneous injection)] to the mouse. Thereafter, a 0.5% acetic acid solution is administered (i.p.) to a mouse and the numbers of writhing responses are counted for twenty minutes. Antinociception is quantified as reduction in the number of writhes respective to vehicle.
An analgesic assay was used to determine whether a given compound can reduce and/or prevent visceral pain in mice. The assay utilizes Swiss Albino or CD-1 male mice (5-10 mice per group), each mouse being approximately 0.015-0.030 kg on the study day. Mice were treated according to standard protocols.
The animal was given an intraperitoneal (IP) injection of an irritant (acetic acid) that induces “writhing” which may include: contractions of the abdomen, twisting and turning of the trunk, arching of the back and the extension of the hindlimbs. Mice are given a single IP injection (0.1 mL/10 g bodyweight) of a 0.5% acetic acid solution. After the injection the animals were returned to their observation enclosure and their behavior was observed. Contractions were counted between 0 and 20 minutes after the injection. The animals were used once. In certain instances, the test articles were administered at multiple doses to determine a dose response curve.
Table 4 provides the results for certain compounds of the present invention that were administered subcutaneously. Table 5 provides the results for certain compounds of the present invention that were administered orally.

[4] = biological target: recombinant human mu (MOR) opioid receptor (Homo sapiens (Human), UniProt P35372); assay: Radioligand competition binding assay, mu opioid receptor; conditions: [3H]Naloxone 4 nM, CHO-K1 membranes
Description: The binding affinities of certain compounds of the present invention were evaluated using radioligand binding assays in membranes prepared from CHO-K1 cells expressing recombinant human kappa (KOR) or mu (MOR) opioid receptors.
Competition binding experiments were conducted by incubating membrane protein to equilibrium in triplicate in the presence of a fixed concentration of radioligand and increasing concentrations of test compound for evaluation of binding to KOR or single concentration (10 μM) of test compound for evaluation of binding to MOR in 101 μL final volume. The radioligands used were specific for each receptor type, and the assay conditions are described in Table 1. Following incubations, the membranes were rapidly filtered through GF/B filter plate (presoaked with 0.5% polyethyleneimine), washed five times with cold 50 mM Tris-HCl, pH 7.5, and the bound radioactivity was then measured by liquid scintillation counting. Non-specific binding was measured in the presence of excess ligand; this value was subtracted from the total binding to yield the specific binding at each test concentration.
Ki (affinity of test compound) was obtained using the Cheng Prusoff correction using experimental Kd (affinity of radioligand) values that were previously determined under these assay conditions. For MOR binding, compounds were tested at one concentration, 10 μM, to evaluate its ability to inhibit specific radioligand binding. The values are expressed as percent inhibition of specific binding and greater than 50% inhibition of binding was considered to be significant.
With respect to determining MOR binding, an approach similar to one used for KOR binding was used.

[5] = biological target: MOR (Homo sapiens (Human), UniProt P35372); assay: cAMP accumulation assay, forskolin-stimulated CHO-K1 cells stably expressing MOR; type: cell-based; conditions: inhibition of cAMP accumulation
Description: as §1
Using a similar approach, inhibition of cAMP accumulation by select compounds was also determined in forskolin-simulated CHO-K1 cells stably expressing MOR (wherein for this assay a density of 8×10^5 cells/mL was used and the positive control was DAMGO). Certain compounds of the present invention were tested as described above.

[6] = test system: Male Swiss Albino mice; assay: Locomotor activity; type: in vivo; conditions: oral, 30 min pre-dose, 20 min observation
Description: The locomotor activity (LMA) model may be conducted to measure changes in activity following test article administration, which may be used to assess the CNS effects of the drug. In brief, at a predetermined time post-dose, rats are placed into observation chambers which are equipped with infrared photocells that can sense motion in the x, y, and z planes. Activity is measured as the number of photobeam breaks in a given plane (horizontal or vertical) or total distance traveled.
Male Swiss Albino mice were treated orally with vehicle (0.5% HPMC+0.1% Tween80), ketazocine, Compound 12 (0.3, 3 and 30 mg/kg) or Compound 20 (0.3, 3 and 30 mg/kg) thirty minutes prior to placement in the locomotor activity chamber. Total distance traveled was measured over the twenty minute observation time following placement in the locomotor activity chamber. Data are normalized relative to percent distance traveled in the vehicle group. The efficacy of Compound 12 (reported as percent distance traveled in comparison to vehicle) was 88.85%, 83.74% and 0.08% at 0.3, 3 and 30 mg/kg dosages, respectively, while the locomotor activity of Compound 20 (reported as percent distance traveled in comparison to vehicle) was 100%, 88% and 0.03% at 0.3, 3 and 30 mg/kg dosages, respectively.

[7] = Mus musculus, sc, 20 min, subcutaneous, read-out: AAW % Efficacy
[8] = inhibition of cAMP accumulation, forskolin 20 μM, read-out: EC50 cAMP (nM)-KOR
[9] = Cheng Prusoff correction, [3H]Diprenorphine 1 nM, CHO-K1 membranes, read-out: Kappa receptor binding Ki
[10] = Mus musculus, po, 20 min, oral, read-out: AAW % Efficacy

Structure (SMILES) | EC50 [1] | inhibition in vivo at 10 mg/kg [3, 7] | EC50 [1, 8] | Ki [2, 9] | Ki [4] | inhibition in vivo at 0.1 mg/kg [3, 10] | inhibition in vivo at 1 mg/kg [3, 10] | inhibition in vivo at 10 mg/kg [3, 10] | EC50 [5] | percent distance traveled in comparison to vehicle ([6]; 0.3 mg/kg) | percent distance traveled in comparison to vehicle ([6]; 3 mg/kg) | percent distance traveled in comparison to vehicle ([6]; 30 mg/kg) | further results
COCCOCCOCCOc1ccc2c(c1)[C@]1(C)CCN(CC3CC3)[C@H](C2=O)[C@@H]1C [Compound 4, (2S,6R,11R)-3-(Cyclopropylmethyl)-8-{2-[2-(2-methoxyethoxy)ethoxy]ethoxy}-6,11-dimethyl-3,4,5,6-tetrahydro-2,6-methano-3-benzazocin-1(2H)-one] | 9.35 nM | 39.7% | – | – | – | – | – | – | – | – | – | – | IC50 [2]: 879 nM; Ki [2]: 203 nM; inhibition in vivo at 200 mg/kg ([3]; Mus musculus, po, 20 min, oral, 200 mg/kg, read-out: AAW % Efficacy): 3.8%; inhibition in vivo at 3 mg/kg ([3]; Mus musculus, sc, 20 min, subcutaneous, 3 mg/kg, read-out: AAW % Efficacy): 0%; inhibition in vivo at 30 mg/kg ([3]; Mus musculus, sc, 20 min, subcutaneous, 30 mg/kg, read-out: AAW % Efficacy): 100%
COCCOCCOCCOCCOCCNc1ccc(Nc2ccc3c(c2)[C@]2(C)CCN(CC4CC4)[C@H](C3=O)[C@@H]2C)cc1 [Compound 12, (2S,6R,11R)-8-((4-(2,5,8,11,14-pentaoxahexadecan-16-ylamino)phenyl)amino)-3-(cyclopropylmethyl)-6,11-dimethyl-3,4,5,6-tetrahydro-2,6-methanobenzo[d]azocin-1(2H)-one] | – | – | 7 nM | 5 nM | 58.5 nM | 22.5% | 56.9% | 97.2% | 189 nM | 88.85% | 83.74% | 0.08% | AAW % Efficacy ([3]; subcutaneous, 3 mg/kg): 68.6%; AAW percent efficacy, outlier data removed ([3]; subcutaneous, 3 mg/kg, outlier data removed): 65.09; AAW % Efficacy ([3]; subcutaneous, 30 mg/kg): 100.0%
C[C@H]1[C@H]2C(=O)c3ccc(NC(C)(C)CO)cc3[C@]1(C)CCN2CC1CC1 [Compound 23, (2S,6R,11R)-3-(Cyclopropylmethyl)-8-((1-hydroxy-2-methylpropan-2-yl)amino)-6,11-dimethyl-3,4,5,6-tetrahydro-2,6-methanobenzo[d]azocin-1(2H)-one] | – | – | 395 nM | 1050 nM | 7960 nM | – | – | – | 3290 nM | – | – | – | –
C[C@H]1[C@H]2C(=O)c3ccc(Nc4ccc(NCCOCCOCCOCCOCCOC(F)(F)F)cc4)cc3[C@]1(C)CCN2CC1CC1 [Compound 20, (2S,6R,11R)-3-(cyclopropylmethyl)-6,11-dimethyl-8-((4-((1,1,1-trifluoro-2,5,8,11,14-pentaoxahexadecan-16-yl)amino)phenyl)amino)-3,4,5,6-tetrahydro-2,6-methanobenzo[d]azocin-1(2H)-one] | – | 88.1% | 6.1 nM | 2.86 nM | 44.3 nM | – | – | – | 128 nM | 100% | 88% | 0.03% | inhibition in vivo at 0.3 mg/kg ([3]; Mus musculus, po, 20 min, oral, 0.3 mg/kg, read-out: AAW % Efficacy): 39.1%; inhibition in vivo at 3 mg/kg ([3]; Mus musculus, po, 20 min, oral, 3 mg/kg, read-out: AAW % Efficacy): 79.5%; inhibition in vivo at 30 mg/kg ([3]; Mus musculus, po, 20 min, oral, 30 mg/kg, read-out: AAW % Efficacy): 100%
C[C@H]1[C@H]2C(=O)c3ccc(O)cc3[C@]1(C)CCN2CC1CC1 [Ketazocine, (2S,6R,11R)-3-(cyclopropylmethyl)-8-hydroxy-6,11-dimethyl-3,4,5,6-tetrahydro-2,6-methanobenzo[d]azocin-1(2H)-one, reference compound] | 0.55 nM | – | – | 1.3 nM | – | 12.8% | 34.5% | 58.9% | – | – | – | – | IC50 ([2]; [3H]Diprenorphine 1 nM, CHO-K1 membranes, read-out: Kappa receptor binding IC50): 5.6 nM; IC50 [4]: 8.4 nM; inhibition in vivo at 100 mg/kg ([3]; Mus musculus, po, 20 min, oral, 100 mg/kg, read-out: AAW % Efficacy): 100%; inhibition in vivo at 0.01 mg/kg ([3]; Mus musculus, sc, 20 min, subcutaneous, 0.01 mg/kg, read-out: AAW % Efficacy): 10.6%; inhibition in vivo at 0.1 mg/kg [3, 7]: 50%; inhibition in vivo at 1 mg/kg [3, 7]: 100%
C[C@H]1[C@H]2C(=O)c3ccc(NC(CO)CO)cc3[C@]1(C)CCN2CC1CC1 [Compound 24, (2S,6R,11R)-3-(cyclopropylmethyl)-8-((1,3-dihydroxypropan-2-yl)amino)-6,11-dimethyl-3,4,5,6-tetrahydro-2,6-methanobenzo[d]azocin-1(2H)-one] | – | – | 107 nM | 494 nM | 1810 nM | – | – | – | 598 nM | – | – | – | –
